Source: patent US20190381014A1, “ISOQUINOLINONE COMPOUNDS AND USE THEREOF IN PREPARATION OF ANTIVIRAL DRUGS” (Ginkgo Pharma Co., Ltd., priority 2016, published 2019)

What follows are compounds tested on HBsAg (assay: HBsAg inhibition in HepG2.2.15 culture supernatant (ELISA)). Conditions: HepG2.2.15 cells, supernatant on day 8, ELISA; read-out: Activity in HBsAg inhibition, EC50.
Format: cell-based, HBV
Method: Test method: HepG2.2.15 cell line was seeded into 96-well plates at 1.5×10^4 cells/well. On the following day, the cells were treated with a three-fold serial dilution series of the compounds at eight concentration points, and 2 duplicate wells were determined in parallel. The final DMSO concentration in the culture solution was 0.5%. On the fifth day, the culture solution was replaced with fresh solution containing the compounds. On the eighth day, the culture supernatant was collected and the HBsAg in the culture supernatant was detected by ELISA. The percent inhibition was calculated with respect to the blank control.

`COc1cc2c(cc1OC1CCOCC1)CC(C(C)C)n1cc(C(=O)O)c(=O)cc1-2` (racemic) [Compound I-3-rac, 6-isopropyl-10-methoxy-2-oxo-9-((tetrahydro-2H-pyran-4-yl)oxy)-6,7-dihydro-2H-pyrido[2,1-α]isoquinoline-3-carboxylic acid] was tested. Which EC50 did it give?
Its EC50 is 7.04 nM.

With `COCC1(COc2cc3c(cc2Cl)-c2cc(=O)c(C(=O)O)cn2C(C(C)C)C3)CC1` (racemic) [Compound I-24-rac, 10-chloro-6-isopropyl-9-((1-(methoxymethyl)cyclopropyl)methoxy)-2-oxo-6,7-dihydro-2H-pyrido[2,1-α]isoquinoline-3-carboxylic acid] as the compound, how does the EC50 read?
The EC50 was 5.78 nM.

`COc1cc2c(cc1O[C@@H]1CCOC1)CC(C(C)(C)C)n1cc(C(=O)O)c(=O)cc1-2` (mixture of isomers) [Compound I-28-rac, 6-(tert-butyl)-10-methoxy-2-oxo-9-(((R)-tetrahydrofuran-3-yl)oxy)-6,7-dihydro-2H-pyrido[2,1-α]isoquinoline-3-carboxylic acid] was tested. Which EC50 did it give?
Its EC50 is 5.78 nM.

For `COCC1(COc2cc3c(cc2OC)-c2cc(=O)c(C(=O)O)cn2C(C(C)(C)C)C3)CC1` (racemic) [Compound I-30-rac, 6-(tert-butyl)-10-methoxy-9-((1-(methoxymethyl)cyclopropyl)methoxy)-2-oxo-6,7-dihydro-2H-pyrido[2,1-α]isoquinoline-3-carboxylic acid], which EC50 is on record?
The EC50 was 6.74 nM.

Same assay, conditions: Hepatitis B virus, HepG2.2.15, 192 h, read-out: Activity in HBsAg inhibition, EC50

`COCCCOc1cc2c(cc1OC)-c1cc(=O)c(C(=O)O)cn1C(C(C)C)C2` (racemic) [A-rac, reference compound] was tested. Which EC50 did it give?
The EC50 was 8.21 nM.

`COc1cc2c(cc1O[C@H]1CCOC1)CC(C(C)C)n1cc(C(=O)O)c(=O)cc1-2` (mixture of isomers) [Compound I-1-rac, 6-isopropyl-10-methoxy-2-oxo-9-(((S)-tetrahydrofuran-3-yl)oxy)-6,7-dihydro-2H-pyrido[2,1-α]isoquinoline-3-carboxylic acid] was tested. Which EC50 did it give?
The EC50 was 5.74 nM.

`COc1cc2c(cc1O[C@@H]1CCOC1)CC(C(C)C)n1cc(C(=O)O)c(=O)cc1-2` (mixture of isomers) [Compound I-2-rac, 6-isopropyl-10-methoxy-2-oxo-9-(((R)-tetrahydrofuran-3-yl)oxy)-6,7-dihydro-2H-pyrido[2,1-α]isoquinoline-3-carboxylic acid] was tested. Which EC50 did it give?
The EC50 was 3.26 nM.

With `COc1cc2c(cc1OC1COC1)CC(C(C)C)n1cc(C(=O)O)c(=O)cc1-2` (racemic) [Compound I-4-rac, 6-isopropyl-10-methoxy-9-(oxetan-3-yloxy)-2-oxo-6,7-dihydro-2H-pyrido[2,1-α]isoquinoline-3-carboxylic acid] as the compound, how does the EC50 read?
The EC50 was 3.62 nM.

How did the EC50 turn out when `COc1cc2c(cc1O[C@H]1C[C@H](OC)C1)CC(C(C)C)n1cc(C(=O)O)c(=O)cc1-2` (mixture of isomers) [Compound I-5-rac, 6-isopropyl-10-methoxy-9-((1R,3S)-3-methoxycyclobutoxy)-2-oxo-6,7-dihydro-2H-pyrido[2,1-α]isoquinoline-3-carboxylic acid] was run?
The EC50 was 3.56 nM.

For `COCC1(COc2cc3c(cc2OC)-c2cc(=O)c(C(=O)O)cn2C(C(C)C)C3)CC1` (racemic) [Compound I-6-rac, 6-isopropyl-10-methoxy-9-((1-(methoxymethyl)cyclopropyl)methoxy)-2-oxo-6,7-dihydro-2H-pyrido[2,1-α]isoquinoline-3-carboxylic acid], which EC50 is on record?
Its EC50 is 4.12 nM.

How did the EC50 turn out when `COCC1(COc2cc3c(cc2OC)-c2cc(=O)c(C(=O)O)cn2C(C(C)C)C3)COC1` (racemic) [Compound I-7-rac, 6-isopropyl-10-methoxy-9-((3-(methoxymethyl)oxetan-3-yl)methoxy)-2-oxo-6,7-dihydro-2H-pyrido[2,1-α]isoquinoline-3-carboxylic acid] was run?
Its EC50 is 4.68 nM.

Which EC50 does the source give for `COc1cc2c(cc1OCC1CC(OC)C1)CC(C(C)C)n1cc(C(=O)O)c(=O)cc1-2` (racemic) [Compound I-8-rac, 6-isopropyl-10-methoxy-9-((3-methoxycyclobutyl)methoxy)-2-oxo-6,7-dihydro-2H-pyrido[2,1-α]isoquinoline-3-carboxylic acid] here?
The EC50 was 5.59 nM.

How did the EC50 turn out when `COc1cc2c(cc1OCCCC(C)=O)CC(C(C)C)n1cc(C(=O)O)c(=O)cc1-2` (racemic) [Compound I-9-rac, 6-isopropyl-10-methoxy-2-oxo-9-((4-oxopentyl)oxy)-6,7-dihydro-2H-pyrido[2,1-α]isoquinoline-3-carboxylic acid] was run?
Its EC50 is 3.71 nM.

Which EC50 does the source give for `COc1cc2c(cc1OC1CCCC1)CC(C(C)C)n1cc(C(=O)O)c(=O)cc1-2` (racemic) [Compound I-10-rac, 9-(cyclopentyloxy)-6-isopropyl-10-methoxy-2-oxo-6,7-dihydro-2H-pyrido[2,1-α]isoquinoline-3-carboxylic acid] here?
The EC50 was 3.78 nM.

How did the EC50 turn out when `COc1cc2c(cc1C#CC1CC1)CC(C(C)C)n1cc(C(=O)O)c(=O)cc1-2` (racemic) [Compound I-11-rac, 9-(cyclopropylethynyl)-6-isopropyl-10-methoxy-2-oxo-6,7-dihydro-2H-pyrido[2,1-α]isoquinoline-3-carboxylic acid] was run?
Its EC50 is 2.61 nM.

How did the EC50 turn out when `CC(C)C1Cc2cc(O[C@@H]3CCOC3)c(Cl)cc2-c2cc(=O)c(C(=O)O)cn21` (mixture of isomers) [Compound I-22-rac, 10-chloro-6-isopropyl-2-oxo-9-(((R)-tetrahydrofuran-3-yl)oxy)-6,7-dihydro-2H-pyrido [2,1-α]isoquinoline-3-carboxylic acid] was run?
The EC50 was 5.46 nM.

With `CO[C@H]1C[C@H](Oc2cc3c(cc2Cl)-c2cc(=O)c(C(=O)O)cn2C(C(C)C)C3)C1` (mixture of isomers) [Compound I-23-rac, 10-chloro-6-isopropyl-9-((1R,3R)-3-methoxycyclobutoxy)-2-oxo-6,7-dihydro-2H-pyrido [2,1-α]isoquinoline-3-carboxylic acid] as the compound, how does the EC50 read?
The EC50 was 6.83 nM.

How did the EC50 turn out when `COCC1(COc2cc3c(cc2Cl)-c2cc(=O)c(C(=O)O)cn2C(C(C)C)C3)COC1` (racemic) [Compound I-25-rac, 10-chloro-6-isopropyl-9-((3-(methoxymethyl)oxetan-3-yl)methoxy)-2-oxo-6,7-dihydro-2H-pyrido[2,1-α]isoquinoline-3-carboxylic acid] was run?
The EC50 was 6.97 nM.

Which EC50 does the source give for `COC1CC(COc2cc3c(cc2Cl)-c2cc(=O)c(C(=O)O)cn2C(C(C)C)C3)C1` (racemic) [Compound I-26-rac, 10-chloro-6-isopropyl-9-((3-methoxycyclobutyl)methoxy)-2-oxo-6,7-dihydro-2H-pyrido[2,1-α]isoquinoline-3-carboxylic acid] here?
Its EC50 is 7.56 nM.

For `COc1cc2c(cc1O[C@H]1C[C@H](OC)C1)CC(C(C)(C)C)n1cc(C(=O)O)c(=O)cc1-2` (mixture of isomers) [Compound I-29-rac, 6-(tert-butyl)-10-methoxy-9-((1R,3R)-3-methoxycyclobutoxy)-2-oxo-6,7-dihydro-2H-pyrido[2,1-α]isoquinoline-3-carboxylic acid], which EC50 is on record?
Its EC50 is 6.45 nM.

For `COCC1(COc2cc3c(cc2OC)-c2cc(=O)c(C(=O)O)cn2C(C(C)(C)C)C3)COC1` (racemic) [Compound I-31-rac, 6-(tert-butyl)-10-methoxy-9-((3-(methoxymethyl)oxetan-3-yl)methoxy)-2-oxo-6,7-dihydro-2H-pyrido[2,1-α]isoquinoline-3-carboxylic acid], which EC50 is on record?
Its EC50 is 5.98 nM.

Which EC50 does the source give for `COc1cc2c(cc1OCC1CC(OC)C1)CC(C(C)(C)C)n1cc(C(=O)O)c(=O)cc1-2` (racemic) [Compound I-32-rac, 6-(tert-butyl)-10-methoxy-9-((3-methoxycyclobutyl)methoxy)-2-oxo-6,7-dihydro-2H-pyrido[2,1-α]isoquinoline-3-carboxylic acid] here?
Its EC50 is 7.31 nM.

With `COCC(C)(C)C1Cc2cc(O[C@@H]3CCOC3)c(OC)cc2-c2cc(=O)c(C(=O)O)cn21` (mixture of isomers) [Compound I-52-rac, 10-methoxy-6-(1-methoxy-2-methylpropan-2-yl)-2-oxo-9-(((R)-tetrahydrofuran-3-yl)oxy)-6,7-dihydro-2H-pyrido[2,1-α]isoquinoline-3-carboxylic acid] as the compound, how does the EC50 read?
Its EC50 is 7.57 nM.

With `COCC(C)(C)C1Cc2cc(O[C@H]3C[C@H](OC)C3)c(OC)cc2-c2cc(=O)c(C(=O)O)cn21` (mixture of isomers) [Compound I-53-rac, 10-methoxy-6-(1-methoxy-2-methylpropan-2-yl)-9-((1R,3R)-3-methoxycyclobutoxy)-2-oxo-6,7-dihydro-2H-pyrido[2,1-α]isoquinoline-3-carboxylic acid] as the compound, how does the EC50 read?
Its EC50 is 6.65 nM.

With `COCC1(COc2cc3c(cc2OC)-c2cc(=O)c(C(=O)O)cn2C(C(C)(C)COC)C3)CC1` (racemic) [Compound I-54-rac, 10-methoxy-6-(1-methoxy-2-methylpropan-2-yl)-9-((1-(methoxymethyl)cyclopropyl)methoxy)-2-oxo-6,7-dihydro-2H-pyrido[2,1-α]isoquinoline-3-carboxylic acid] as the compound, how does the EC50 read?
The EC50 was 5.34 nM.

For `COCC1(COc2cc3c(cc2OC)-c2cc(=O)c(C(=O)O)cn2C(C(C)(C)COC)C3)COC1` (racemic) [Compound I-55-rac, 10-methoxy-6-(1-methoxy-2-methylpropan-2-yl)-9-((3-(methoxymethyl)oxetan-3-yl)methoxy)-2-oxo-6,7-dihydro-2H-pyrido[2,1-α]isoquinoline-3-carboxylic acid], which EC50 is on record?
Its EC50 is 7.23 nM.

How did the EC50 turn out when `COCC(C)(C)C1Cc2cc(OCC3CC(OC)C3)c(OC)cc2-c2cc(=O)c(C(=O)O)cn21` (racemic) [Compound I-56-rac, 10-methoxy-6-(1-methoxy-2-methylpropan-2-yl)-9-((3-methoxycyclobutyl)methoxy)-2-oxo-6,7-dihydro-2H-pyrido[2,1-α]isoquinoline-3-carboxylic acid] was run?
Its EC50 is 5.95 nM.

For `COCCC#Cc1cc2c(cc1OC)-c1cc(=O)c(C(=O)O)cn1[C@H](C(C)C)C2` [Compound I-12, (S)-6-isopropyl-10-methoxy-9-(4-methoxybut-1-yn-1-yl)-2-oxo-6,7-dihydro-2H-pyrido [2,1-α]isoquinoline-3-carboxylic acid], which EC50 is on record?
The EC50 was 3.83 nM.
